# Assay results as given in patent publication US20240425480A1, “NOVEL PYRIDINE DERIVATIVE COMPOUND AS RON INHIBITOR” (LG CHEM, LTD., priority 2021, published 2024).
# Experiments:
# [1] = target: RON (Homo sapiens, UniProt Q04912); assay: Inhibitory activity against RON, TR-FRET kinase assay; format: biochemical; conditions: TR-FRET enzyme assay
# Procedure, shortened: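 Compounds (3-fold series from a 1 mM DMSO stock) were preincubated 20–30 min at RT with RON (0.4 nM solution) in pH 7.4 HEPES, 10 mM MgCl2 buffer. A 2× cocktail of 40 uM ULight-Poly GT and 100 nM ATP was then added for 60 min at RT. After EDTA stop, Eu anti-phosphotyrosine TR-FRET (665/620 nm) was read and IC50 derived.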
# [2] = target: cMET (Homo sapiens, UniProt P08581); assay: Inhibitory activity against MET (cMET), TR-FRET kinase assay; format: biochemical; conditions: TR-FRET enzyme assay
# Procedure, shortened: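 Human cMET (2 nM dilution) preincubated with compound 20-30 min at room temperature in HEPES pH 7.4 buffer with MnCl2/MgCl2, then 60 min with TK peptide and ATP substrate cocktail (5 uM peptide, 10 mM ATP, prepared at 2× final). EDTA-stopped; europium anti-phosphotyrosine TR-FRET read at 620/665 nm; pIC50 derived.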
# Sequence of RON (Q04912 25-1400, species assumed): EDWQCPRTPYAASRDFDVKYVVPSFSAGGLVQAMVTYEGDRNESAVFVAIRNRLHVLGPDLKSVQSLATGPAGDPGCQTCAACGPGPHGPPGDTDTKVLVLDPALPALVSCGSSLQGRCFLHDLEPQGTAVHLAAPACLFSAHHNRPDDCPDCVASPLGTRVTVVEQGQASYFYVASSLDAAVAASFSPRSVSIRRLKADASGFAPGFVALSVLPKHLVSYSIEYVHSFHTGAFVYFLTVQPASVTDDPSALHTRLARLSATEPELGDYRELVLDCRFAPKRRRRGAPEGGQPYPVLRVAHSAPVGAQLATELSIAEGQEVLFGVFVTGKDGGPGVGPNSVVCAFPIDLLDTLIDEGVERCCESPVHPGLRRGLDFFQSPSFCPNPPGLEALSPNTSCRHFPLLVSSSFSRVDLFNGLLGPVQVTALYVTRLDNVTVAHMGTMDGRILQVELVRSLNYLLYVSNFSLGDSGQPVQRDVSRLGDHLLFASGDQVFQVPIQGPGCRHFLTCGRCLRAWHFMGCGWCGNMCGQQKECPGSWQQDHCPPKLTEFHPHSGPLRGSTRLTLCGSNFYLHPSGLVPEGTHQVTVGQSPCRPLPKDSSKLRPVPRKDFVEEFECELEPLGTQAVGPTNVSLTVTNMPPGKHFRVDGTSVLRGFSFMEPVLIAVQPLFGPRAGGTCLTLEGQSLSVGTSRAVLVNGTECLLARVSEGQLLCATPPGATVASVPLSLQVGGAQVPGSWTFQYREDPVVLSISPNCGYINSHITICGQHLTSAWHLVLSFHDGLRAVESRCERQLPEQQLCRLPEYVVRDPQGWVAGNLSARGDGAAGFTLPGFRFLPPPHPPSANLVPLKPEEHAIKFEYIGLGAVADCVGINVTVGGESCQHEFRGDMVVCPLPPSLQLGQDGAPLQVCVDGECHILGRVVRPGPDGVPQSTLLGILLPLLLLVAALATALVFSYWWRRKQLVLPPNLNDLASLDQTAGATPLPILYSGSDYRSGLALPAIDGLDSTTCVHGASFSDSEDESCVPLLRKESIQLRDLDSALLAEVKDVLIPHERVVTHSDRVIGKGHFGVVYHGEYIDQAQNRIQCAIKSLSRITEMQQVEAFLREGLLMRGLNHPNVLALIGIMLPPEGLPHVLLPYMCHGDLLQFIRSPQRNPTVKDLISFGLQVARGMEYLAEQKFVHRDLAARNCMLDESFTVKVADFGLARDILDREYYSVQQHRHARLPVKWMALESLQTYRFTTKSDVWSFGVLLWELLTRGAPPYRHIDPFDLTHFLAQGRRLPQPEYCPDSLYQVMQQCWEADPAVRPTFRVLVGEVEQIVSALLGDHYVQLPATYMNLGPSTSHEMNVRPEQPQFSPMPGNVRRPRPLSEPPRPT
# Sequence of cMET (P08581 25-1390): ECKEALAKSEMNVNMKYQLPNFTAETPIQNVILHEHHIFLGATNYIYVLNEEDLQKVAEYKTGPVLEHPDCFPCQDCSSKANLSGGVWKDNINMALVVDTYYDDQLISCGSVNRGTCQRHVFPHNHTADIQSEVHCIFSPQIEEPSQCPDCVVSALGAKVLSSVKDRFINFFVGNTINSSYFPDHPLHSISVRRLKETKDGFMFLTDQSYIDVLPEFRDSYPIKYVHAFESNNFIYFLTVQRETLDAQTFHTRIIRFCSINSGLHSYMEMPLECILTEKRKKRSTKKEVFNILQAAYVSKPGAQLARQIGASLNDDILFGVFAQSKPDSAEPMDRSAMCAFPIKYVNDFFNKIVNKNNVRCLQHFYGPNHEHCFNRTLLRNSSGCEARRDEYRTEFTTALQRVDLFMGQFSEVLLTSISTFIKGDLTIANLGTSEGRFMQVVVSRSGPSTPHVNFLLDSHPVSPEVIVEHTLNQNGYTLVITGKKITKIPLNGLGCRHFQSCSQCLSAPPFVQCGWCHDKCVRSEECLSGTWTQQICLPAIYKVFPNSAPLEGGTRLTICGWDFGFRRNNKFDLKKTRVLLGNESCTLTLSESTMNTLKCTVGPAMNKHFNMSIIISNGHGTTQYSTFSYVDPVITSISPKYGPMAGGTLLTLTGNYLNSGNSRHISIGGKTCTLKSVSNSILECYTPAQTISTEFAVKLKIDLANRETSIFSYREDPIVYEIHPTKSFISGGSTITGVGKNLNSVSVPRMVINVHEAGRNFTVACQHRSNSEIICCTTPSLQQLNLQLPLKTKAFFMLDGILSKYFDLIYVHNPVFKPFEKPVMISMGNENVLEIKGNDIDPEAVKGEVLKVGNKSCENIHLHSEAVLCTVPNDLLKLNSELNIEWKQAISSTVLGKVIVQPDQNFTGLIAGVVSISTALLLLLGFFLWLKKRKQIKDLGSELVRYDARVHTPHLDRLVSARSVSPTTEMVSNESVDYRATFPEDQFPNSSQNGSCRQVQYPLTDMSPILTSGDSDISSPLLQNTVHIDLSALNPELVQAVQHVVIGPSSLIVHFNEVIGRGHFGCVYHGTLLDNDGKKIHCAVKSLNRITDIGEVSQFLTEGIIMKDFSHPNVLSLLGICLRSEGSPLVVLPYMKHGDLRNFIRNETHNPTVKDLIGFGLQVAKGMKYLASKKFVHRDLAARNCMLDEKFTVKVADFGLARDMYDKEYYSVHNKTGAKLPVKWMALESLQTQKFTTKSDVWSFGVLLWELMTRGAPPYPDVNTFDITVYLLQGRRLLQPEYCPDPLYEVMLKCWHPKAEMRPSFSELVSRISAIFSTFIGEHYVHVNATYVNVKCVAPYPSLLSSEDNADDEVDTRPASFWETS
SMILES,IC50 [1],IC50 [2]
"Nc1ncnc(Oc2ccc(NC(=O)c3cnn(-c4ccncn4)c3C(F)(F)F)cc2F)c1Cl [Example 61, N-[4-(6-amino-5-chloro-pyrimidin-4-yl)oxy-3-fluoro-phenyl]-1-pyrimidin-4-yl-5-(trifluoromethyl)pyrazole-4-carboxamide]",0.5 to 5 µM,> 5 µM
"Cc1ccnc(-n2ncc(C(=O)Nc3ccc(Oc4ncnc(N)c4Cl)c(F)c3)c2C(F)(F)F)n1 [Example 62, N-[4-(6-amino-5-chloro-pyrimidin-4-yl)oxy-3-fluoro-phenyl]-1-(4-methylpyrimidin-2-yl)-5-(trifluoromethyl)pyrazole-4-carboxamide]",0.05 to 0.5 µM,> 5 µM
"Nc1ncnc(Oc2ccc(NC(=O)c3cnn(-c4cc(F)ccn4)c3C(F)(F)F)cc2F)c1Cl [Example 63, N-[4-(6-amino-5-chloro-pyrimidin-4-yl)oxy-3-fluoro-phenyl]-1-(4-fluoro-2-pyridyl)-5-(trifluoromethyl)pyrazole-4-carboxamide]",0.05 to 0.5 µM,> 5 µM
"Nc1ncnc(Oc2ccc(NC(=O)c3cnn(-c4cc(O)ccn4)c3C(F)(F)F)cc2F)c1Cl [Example 64, N-[4-(6-amino-5-chloro-pyrimidin-4-yl)oxy-3-fluoro-phenyl]-1-(4-hydroxy-2-pyridyl)-5-(trifluoromethyl)pyrazole-4-carboxamide]",0.05 to 0.5 µM,> 5 µM
"O=C(Nc1ccc(Oc2ncnc(NC3CC3)c2Cl)c(F)c1)c1cnn(-c2ncccc2F)c1C(F)(F)F [Example 65, N-[4-[5-chloro-6-(cyclopropylamino)pyrimidin-4-yl]oxy-3-fluoro-phenyl]-1-(3-fluoro-2-pyridyl)-5-(trifluoromethyl)pyrazole-4-carboxamide]",0.5 to 5 µM,> 5 µM
"O=C(Nc1ccc(Oc2ncnc(NC3CC3)c2Cl)c(F)c1)c1cnn(-c2ncccc2Cl)c1C(F)(F)F [Example 66, N-[4-[5-chloro-6-(cyclopropylamino)pyrimidin-4-yl]oxy-3-fluoro-phenyl]-1-(3-chloro-2-pyridyl)-5-(trifluoromethyl)pyrazole-4-carboxamide]",> 5 µM,> 5 µM
